Experimental data: US4260682A, “High sensitivity assays for angiotensin converting enzyme” (priority 1979, dated 1981)
Square brackets hold non-standard residues; d marks the D form. Ends that are not written are not given here. Peptide text beside a SMILES is read from it. pGlu = O=C1CC[C@@H](C(=O)O)N1

Key:
[1] = tested on: ACE; assay: Sulfate and chloride effects on ACE catalysed hydrolysis (general description); assay type: biochemical; conditions: 0.05 M Hepes, pH 8.0
Source text: An assay for ACE, using HipHisLeu as substrate, is herewith described. The assay is more sensitive than any heretofore disclosed using HipHisLeu as substrate. Maximum sensitivity is achieved by the inclusion of sulfate ions, preferably as sodium sulfate, in the reaction mixture. When 0.1 M NaCl is present in the reaction mixture, sulfate ions are stimulatory from 0.1 M to at least 1.1 M. Maximum stimulation occurs in the range from 0.75 M to 1.1 M Na2 SO4.
(§1) An even more sensitive assay for ACE activity has been developed using the novel compound ^3 H-benzoylPheAlaPro as substrate. This new substrate can be used to assay ACE in human urine in incubations as short as 15 minutes. The response of this substrate to ions is strikingly different from the response of HipHisLeu. […] This difficulty has been solved by the proper choice of extracting solvent. While a variety of organic solvents may be suitable for the extraction step, it is preferred to employ toluene. Approximately 88% of ^3 H-benzoylPhe enters the toluene phase while only 6% of the unhydrolyzed substrate enters the toluene phase, when toluene and the acidified reaction mixture are in approximately equal volumes at room temperatures.
The enzyme is active over a broad pH range with a maximum around pH 8.0, but is at least about 50% active in the range pH 7.0-pH 8.8, for both HipHisLeu and benzoylPheAlaPro. Although the enzyme is active in a variety of buffer systems known in the art, it is preferred for convenience, when using benzoylPheAlaPro as substrate, to conduct the assays in 0.05 M Hepes buffer, pH 8.0 containing 0.15 M sodium chloride. Detailed protocols for carrying out the assay are given in the examples. […] The preferred concentration range is 1×10^-9 M to 7×10^- 5 M.

[2] = target: T1, Guinea pig serum ACE (Cavia porcellus, UniProt H0UWL7); assay: Kinetics of benzoyl-Phe-Ala-Pro hydrolysis; conditions: read-out: apparent Km; 0.05 M Hepes, pH 8.0, 0.15 M NaCl; Lineweaver and Burke plot
T1 sequence (H0UWL7 33-1234): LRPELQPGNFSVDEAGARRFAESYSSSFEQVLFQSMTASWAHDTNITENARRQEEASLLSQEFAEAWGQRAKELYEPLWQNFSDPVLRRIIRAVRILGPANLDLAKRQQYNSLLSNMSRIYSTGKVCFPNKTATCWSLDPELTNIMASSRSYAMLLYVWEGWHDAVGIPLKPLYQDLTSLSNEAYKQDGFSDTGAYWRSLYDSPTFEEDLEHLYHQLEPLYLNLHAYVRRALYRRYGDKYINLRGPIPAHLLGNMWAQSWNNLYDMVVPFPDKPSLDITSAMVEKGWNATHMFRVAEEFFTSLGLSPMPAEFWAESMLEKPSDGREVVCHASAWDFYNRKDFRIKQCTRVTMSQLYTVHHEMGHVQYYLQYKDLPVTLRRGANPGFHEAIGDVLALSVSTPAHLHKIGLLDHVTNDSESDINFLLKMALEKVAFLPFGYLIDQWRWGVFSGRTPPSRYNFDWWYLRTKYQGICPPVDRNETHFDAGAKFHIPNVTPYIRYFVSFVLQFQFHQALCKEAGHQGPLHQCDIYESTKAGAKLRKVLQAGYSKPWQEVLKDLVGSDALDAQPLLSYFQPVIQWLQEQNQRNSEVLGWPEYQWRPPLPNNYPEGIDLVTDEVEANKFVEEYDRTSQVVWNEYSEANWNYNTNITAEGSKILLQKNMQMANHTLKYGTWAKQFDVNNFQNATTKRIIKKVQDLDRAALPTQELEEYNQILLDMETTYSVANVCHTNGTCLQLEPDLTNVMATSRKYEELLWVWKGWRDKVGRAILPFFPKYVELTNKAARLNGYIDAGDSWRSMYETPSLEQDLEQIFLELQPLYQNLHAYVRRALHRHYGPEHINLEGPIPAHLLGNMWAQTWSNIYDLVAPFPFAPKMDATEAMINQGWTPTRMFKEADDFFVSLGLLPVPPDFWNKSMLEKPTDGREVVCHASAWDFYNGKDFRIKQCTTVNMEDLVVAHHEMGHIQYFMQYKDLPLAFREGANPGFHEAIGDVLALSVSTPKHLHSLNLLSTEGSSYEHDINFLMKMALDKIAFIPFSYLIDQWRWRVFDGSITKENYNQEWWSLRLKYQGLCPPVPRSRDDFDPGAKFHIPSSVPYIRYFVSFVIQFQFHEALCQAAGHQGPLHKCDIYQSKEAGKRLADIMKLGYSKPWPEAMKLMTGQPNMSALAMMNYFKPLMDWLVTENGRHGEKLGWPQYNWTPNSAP
Experimental: Kinetics of Benzoyl-Phe-Ala-Pro Hydrolysis
The apparent Km for the ACE catalyzed hydrolysis of benzoyl-Phe-Ala-Pro was measured in the following manner. […] Guinea pig serum was diluted 1:1000 to provide the enzyme. A mixture of 50 μl diluted serum and 50 μl of substrate, diluted in the reaction buffer to provide the appropriate substrate concentration for each experiment, was incubated at 37° C. for 10 minutes. At the end of the incubation, 1.0 ml of 0.1 M HCl was added to stop the reaction. The reaction mixture was then extracted with 1.0 ml toluene, and a 0.5 ml aliquot of the toluene phase was counted in a scintillation counter.

[3] = target: ACE (Homo sapiens, UniProt P12821); assay: Comparison of sensitivity of ACE radioassays; assay type: biochemical
ACE (Homo sapiens, UniProt P12821), sequence (P12821 30-1306, species assumed): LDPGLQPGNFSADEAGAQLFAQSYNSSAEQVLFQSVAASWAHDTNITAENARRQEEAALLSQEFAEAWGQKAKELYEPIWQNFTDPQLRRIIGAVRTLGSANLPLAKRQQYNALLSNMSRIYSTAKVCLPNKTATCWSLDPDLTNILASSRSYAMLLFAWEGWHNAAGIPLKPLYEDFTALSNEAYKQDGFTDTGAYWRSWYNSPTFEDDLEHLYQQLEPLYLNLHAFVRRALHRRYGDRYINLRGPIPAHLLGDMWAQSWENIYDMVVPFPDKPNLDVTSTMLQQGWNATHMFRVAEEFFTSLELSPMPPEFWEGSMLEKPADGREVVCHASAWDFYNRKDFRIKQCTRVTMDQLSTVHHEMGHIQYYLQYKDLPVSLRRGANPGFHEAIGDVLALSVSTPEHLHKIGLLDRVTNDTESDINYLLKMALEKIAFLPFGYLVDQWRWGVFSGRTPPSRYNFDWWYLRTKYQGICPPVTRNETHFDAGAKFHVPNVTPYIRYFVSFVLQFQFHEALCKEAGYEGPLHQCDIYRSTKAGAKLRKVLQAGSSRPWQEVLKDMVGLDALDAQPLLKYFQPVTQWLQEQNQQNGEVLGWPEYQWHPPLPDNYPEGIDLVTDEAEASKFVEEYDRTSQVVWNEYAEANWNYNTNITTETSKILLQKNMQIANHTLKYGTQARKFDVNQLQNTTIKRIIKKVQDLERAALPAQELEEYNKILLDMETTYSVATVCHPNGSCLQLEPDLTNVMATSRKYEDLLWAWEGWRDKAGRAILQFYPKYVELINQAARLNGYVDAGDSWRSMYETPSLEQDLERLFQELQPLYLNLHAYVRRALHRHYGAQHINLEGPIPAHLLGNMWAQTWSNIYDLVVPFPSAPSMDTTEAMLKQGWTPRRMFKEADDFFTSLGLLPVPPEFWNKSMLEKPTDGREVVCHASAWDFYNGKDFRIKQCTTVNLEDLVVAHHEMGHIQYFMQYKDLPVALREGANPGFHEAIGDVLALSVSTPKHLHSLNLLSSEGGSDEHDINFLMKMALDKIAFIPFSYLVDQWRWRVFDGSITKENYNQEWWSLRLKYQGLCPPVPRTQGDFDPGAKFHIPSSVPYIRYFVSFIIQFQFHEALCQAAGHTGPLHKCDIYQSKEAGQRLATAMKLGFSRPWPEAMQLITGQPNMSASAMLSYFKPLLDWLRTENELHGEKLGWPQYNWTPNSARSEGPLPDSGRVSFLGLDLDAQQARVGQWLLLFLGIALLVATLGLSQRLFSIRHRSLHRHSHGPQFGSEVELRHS
Source text: A comparison of the sensitivity of the disclosed assay methods with each other and with prior art assays may be made by considering assays which depend upon measuring the radioactivity of the remnant reaction product. A prior art assay of this type, using ^3 H-HipGlyGly as substrate has been described (Ryan and Chung, supra). Of the two assays disclosed herein, the sulfate stimulated hydrolysis of ^3 H-HipHisLeu is approximately 20 times more sensitive, and the ^3 H-benzoylPheAlaPro assay is about 10 times more sensitive still. The latter is therefore approximately 200 times more sensitive than the assay using ^3 H-HipGlyGly.

[4] = Extraction from the acidified reaction mixture into organic solvent; assay type: physicochemical
Experimental: as §1

[5] = target: T2, ACE (Oryctolagus cuniculus, UniProt P12822); conditions: cited from earlier work
T2 sequence (P12822 34-1310): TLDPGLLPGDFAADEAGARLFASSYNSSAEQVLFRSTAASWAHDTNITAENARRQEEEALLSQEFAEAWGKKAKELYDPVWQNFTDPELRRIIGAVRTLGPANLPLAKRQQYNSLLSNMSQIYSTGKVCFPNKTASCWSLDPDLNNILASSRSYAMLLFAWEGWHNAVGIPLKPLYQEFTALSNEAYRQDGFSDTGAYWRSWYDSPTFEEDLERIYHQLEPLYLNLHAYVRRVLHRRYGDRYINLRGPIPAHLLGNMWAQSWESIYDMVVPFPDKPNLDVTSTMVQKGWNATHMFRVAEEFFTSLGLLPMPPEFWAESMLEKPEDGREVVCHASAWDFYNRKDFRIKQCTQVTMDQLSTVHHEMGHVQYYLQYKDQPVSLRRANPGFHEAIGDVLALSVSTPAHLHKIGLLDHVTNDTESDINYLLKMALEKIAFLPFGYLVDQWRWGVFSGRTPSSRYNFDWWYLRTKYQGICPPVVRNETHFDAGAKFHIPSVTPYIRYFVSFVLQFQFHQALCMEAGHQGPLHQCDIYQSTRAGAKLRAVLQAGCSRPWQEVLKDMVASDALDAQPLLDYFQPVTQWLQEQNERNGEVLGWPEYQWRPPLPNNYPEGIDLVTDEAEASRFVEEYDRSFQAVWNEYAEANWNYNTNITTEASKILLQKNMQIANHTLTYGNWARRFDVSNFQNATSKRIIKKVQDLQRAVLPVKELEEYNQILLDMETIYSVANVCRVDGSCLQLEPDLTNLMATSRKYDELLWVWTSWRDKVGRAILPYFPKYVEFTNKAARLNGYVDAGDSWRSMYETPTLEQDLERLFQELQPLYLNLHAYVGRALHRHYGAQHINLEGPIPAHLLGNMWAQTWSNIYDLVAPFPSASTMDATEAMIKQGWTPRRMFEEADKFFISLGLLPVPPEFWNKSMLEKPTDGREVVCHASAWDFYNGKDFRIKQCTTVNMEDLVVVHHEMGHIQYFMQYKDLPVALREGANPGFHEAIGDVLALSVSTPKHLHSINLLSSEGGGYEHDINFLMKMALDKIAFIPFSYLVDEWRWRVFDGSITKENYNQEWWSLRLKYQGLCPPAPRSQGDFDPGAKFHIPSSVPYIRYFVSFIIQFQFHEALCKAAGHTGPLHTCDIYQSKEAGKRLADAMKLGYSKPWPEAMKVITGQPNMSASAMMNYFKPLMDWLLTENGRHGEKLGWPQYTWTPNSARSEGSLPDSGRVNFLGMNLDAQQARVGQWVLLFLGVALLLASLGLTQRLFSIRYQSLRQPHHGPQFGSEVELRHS

[6] = tested on: ACE; conditions: cited from earlier work

| Compound | hydrolysis in the absence of any added salt [1] | Km [2] [µM] | sensitivity relative to the sulfate-stimulated HipHisLeu assay [3] | sensitivity relative to the assay using ^3 H-HipGlyGly ([3]; radioactivity of remnant product, HipHisLeu assay sulfate stimulated) | extraction into ethyl acetate ([4]; acidified with dilute hydrochloric acid) | fraction entering the toluene phase ([4]; toluene and acidified reaction mixture in approximately equal volumes, room temperature) [%] | substrate for the enzyme [5] | cleavage in the presence of chloride ([5]; vs. buffer of undisclosed composition) | competitive substrate of ACE [6] |
| --- | --- | --- | --- | --- | --- | --- | --- | --- | --- |
| ^3 H-benzoylPheAlaPro | ACE will hydrolyze | 14 | about 10 times | approximately 200 times | extracted almost quantitatively into ethyl acetate | 6 | – | – | – |
| <GluLysTrpAlaPro ([pGlu]KWAP) [BPP5a] | – | – | – | – | – | – | could serve as a substrate for the enzyme | proceeded more slowly in the presence of chloride | competitive substrates |
| NC(N)=NCCC[C@H](NC(=O)[C@H](Cc1ccccc1)NC(=O)[C@@H]1CCCN1C(=O)[C@H](CO)NC(=O)[C@H](Cc1ccccc1)NC(=O)CNC(=O)[C@@H]1CCCN1C(=O)[C@@H]1CCCN1C(=O)[C@@H](N)CCCN=C(N)N)C(=O)O [bradykinin, ArgProProGlyPheSerProPheArg] (H-RPPGFSPFR-OH) | – | – | – | – | – | – | – | – | competitive substrates |
